Columns and labels:
[1] = HPLC analysis of mitomycin solution stability; assay type: physicochemical; settings: storage at ambient temperature and 4° C. in the dark
Experimental: In contrast to the stability of mitomycin in the collagen film, HPLC analysis of the mitomycin solution determined that stability was maintained for only 4 days following storage at ambient temperature and 4° C. in the dark. Dissolution and storage in 0.9% saline or phosphate buffer (pH 7.4) is not recommended due to degradation and precipitation.

[2] = tested on: human subconjunctival fibroblasts derived from Tenon's membrane; settings: freshly prepared 0.4 mg/ml solution, dissolved in USP sterile water
Experimental: 6 mm diameter discs were cut from the film and applied to human subconjunctival fibroblasts derived from Tenon's membrane layered in 96 well plates (CSM supplemented with 10% fetal bovine serum). After 72 hours, mitomycin-induced inhibition of cell division was assessed by measuring the reduction in fluorescence intensity (RFU) using a fluorogenic CalceinAM assay (see, for example, Decherchi et al., J. Neurosci. Meth. 71: 205 (1997); Sugita, Pflitgers Arch. 429: 555 (1995); Padanilam et al., Ann. NY Acad. Sci. 720: 111 (1994); Lichtenfels et al., J. Immunol. Meth. 172: 227 (1994); and Wang et al., Human Immunol. 37: 264 (1993)).

CO[C@@]12[C@H](COC(N)=O)C3=C(C(=O)C(C)=C(N)C3=O)N1C[C@@H]1N[C@@H]12 [mitomycin solution, mitomycin]
time for which stability of the solution was maintained (HPLC) [1]: 4 days | % cell death inhibition relative to the values of the mitomycin-collagen films (91%, 90%, 92%) [2]: comparable
